# Measured values published in patent US9743685B2, “Mixtures having improved cooling effect” (SYMRISE AG, priority 2012, dated 2017).
# Test: Sensory comparison of flavored formulation examples with the flavor not according to the invention
# Assay type: in vivo
compound,measurement,setting,value
"C/C=C(/C=O)c1ccccc1 [2-phenyl-but-2-enal, 2-Phenyl-but-2-enal]",Sensory effect compared to the flavor not according to the invention,"standard chewing gum, 2% peppermint type flavor (Example 2.11)",intensified feeling of freshness together with an increased menthol taste and perception of coolness
same,Sensory effect compared to the flavor not according to the invention,"sugar-free chewing gum, 1% Cinnamon type flavor Cool (Example 2.10), especially in the initial phase of consumption",intensified feeling of freshness together with an increased menthol taste and perception of coolness
same,Sensory effect compared to the flavor not according to the invention,"toothpaste (Silica opaque), 1% peppermint type flavor Cool (Example 2.14)",fresher mouthfeel together with an increased menthol taste and perception of coolness
same,Sensory effect compared to the flavor not according to the invention,"toothpaste (phosphate base), 1% spearmint type flavor (Example 2.12), especially at the start of brushing",definite feeling of freshness together with an increased menthol taste and perception of coolness
same,Sensory effect compared to the flavor not according to the invention,"toothpaste (transparent gel), 1% cinnamon type flavor (Example 2.13)",clearer freshness profile together with an increased menthol taste and perception of coolness
